Here are results for three compounds from patent US20110117220A1, “PREPARATION METHOD OF PLANT EXTRACT USING HIGH PRESSURE-ENZYMATIC DECOMPOSITION TECHNIQUE AND THE COSMETIC COMPOSITION CONTAINING THE EXTRACT” (AMOREPACIFIC CORPORATION, priority 2009, published 2011).

Experiment [1] can be described thus: DPPH radical elimination (antioxidant activity). Format: biochemical. The conditions noted are these: 100 μM DPPH in ethanol, 37° C., 30 minutes, absorbance 540 nm. The source says:
In order to measure the antioxidant effect of the plant extract prepared using the high-pressure enzymatic decomposition technique, a DPPH radical elimination effect was compared between the green tea extract prepared using the high-pressure enzymatic decomposition technique of the present invention (Example 1), the green tea extract prepared using the solvent extraction technique (Comparative Example 3), and Baicalin, a known antioxidant substance.
To measure the antioxidant effects of these extracts, a method of evaluating antioxidant activity based on the change in absorbance caused by the reduction of the organic radical DPPH (1,1-diphenyl-2-picrylhydrazyl) was used. The decrease in absorbance caused by the inhibition of oxidation of DPPH compared to the control was measured, and the concentration (IC50) at which the absorbance was 50% of the control was defined as the effective antioxidant concentration. A lower IC50 value indicates a higher DPPH removal effect, indicating higher antioxidant activity.
Specifically, 10 μl of each of the extracts of Example 1 and Comparative Example 3 and Baicalin was added to 100 μM of a solution of DPPH in ethanol to prepare a reaction solution. The reaction solution was allowed to react at 37° C. for 30 minutes, and then measured for absorbance at 540 nm.
In general terms: The DPPH test is a chemical assay of radical scavenging.

The subject of a further experiment is transglutaminase-1. The experiment in a line: Promotion of transglutaminase-1 synthesis in human skin cells. Type of experiment: cell-based. The conditions noted are these: concentration 1.5 mM, 2 days. The protocol: Because the synthesis of transglutaminase-1 is essential for the formation and maintenance of the horny layer, the effect of promoting the synthesis of transglutaminase-1 can be considered to enhance the skin barrier and increase the skin moisturizing effect. Specifically, human skin cells were added to each well of a 96-well plate at a density of 5×10^4 cells/well and allowed to adhere to each well for 24 hours. The adhered cells were treated with each of the test materials, and after 2 days, the medium was removed, and the cells were stored in a refrigerator at −20° C. The treated cells were disrupted by subjecting the cells twice to freeze-thawing, and then treated with a mixture of acetone:ethanol (1:1, v/v) stored at −20° C. Then, the cells were allowed to stand at 4° C. for 30 minutes so as to be immobilized. Then, the cells were allowed to stand at room temperature to evaporate the organic solvent. […] The expression level of transglutaminase in the cells was determined by measuring the absorbance at 490 nm, and the correction of the measurement was carried out by measuring the background at 630 nm. The absorbance values of the treated cells were compared with the absorbance value of an untreated control group, thereby calculating the rate of promotion of transglutaminase-1 synthesis, and the results of the calculation are shown in Table 6 below.

The next experiment concerns tyrosinase. Description: Tyrosinase activity inhibition (method of Vanni et al). Type of experiment: biochemical. The conditions noted are these: concentration 200 mg/ml; 37° C., 10 minutes.

Converted amounts (≈) assume the structure as drawn.

Text for tyrosinase: In order to measure the skin whitening effect of the plant extract prepared using the high-pressure enzymatic decomposition technique, a tyrosinase activity inhibitory effect was compared between the green tea extract of Example 1 prepared using the high-pressure enzymatic decomposition technique of the present invention, the green tea extract of Comparative Example 3 prepared using the solvent extraction technique, and vitamin C, a typical whitening functional component.
The tyrosinase activity inhibitory effect was measured using the method of Vanni at al (A. Vanni, Annali Di Chimica, 80, p35, 1990). Specifically, 1.0 ml of 0.1M potassium phosphate buffer (pH 6.8), 1.0 ml of 0.3 mg/ml tyrosine aqueous solution and 0.1 ml of 1,250 units/ml tyrosinase (SIGMAT-7755) were mixed with each other, and 0.2 ml of each sample solution was added thereto at a concentration of 200 mg/ml. Then, the mixture was subjected to an enzymatic reaction at 37° C., for 10 minutes. The absorbance of the reaction solution was measured at 480 nm, and based on the results of the measurement, the tyrosinase activity inhibitory rate (%) of each sample was calculated according to the following equation 2. […]
wherein A: absorbance at 480 nm of a reaction solution to which the sample was not added; and B: absorbance at 480 nm of a reaction solution to which the sample was added.

As to `O=C(O)[C@H]1O[C@@H](Oc2cc3oc(-c4ccccc4)cc(=O)c3c(O)c2O)[C@H](O)[C@@H](O)[C@@H]1O` [Baicalin], the “IC50 (DPPH radical elimination)” value in experiment [1] came out at 3100 µg/mL (≈ 6.95 mM).
Consider `[Ca+2].[Cl-].[Cl-]` [Calcium chloride, calcium chloride], for which the “Promotion rate of transglutaminase-1 synthesis (%)” value in the experiment on transglutaminase-1 was found to be 169.9 ± 6.4%.
For the compound `O=C1O[C@H]([C@@H](O)CO)C(O)=C1O` [Vitamin C, vitamin C], the “Tyrosinase activity inhibitory rate (%)” value in the experiment with tyrosinase is recorded as 20%.
